Columns and labels:
Assay type in all cases: functional
RPMI-8226 [1] = experiment: Effect on RNA synthesis was determined by incorporation of radioligand into 8226 human myeloma cells at a concentration of 0.5 ug/mL. (*: >1 log cell kill)
Mus musculus [2] = experiment: Tested for high-dose toxicity in mice at a significant dose of 52.5 mg/kg administered intraperitoneally after 5 days of treatment; settings: route intraperitoneal
RPMI-8226 [3] = experiment: Effect on DNA synthesis was determined by incorporation of radioligand into 8226 human myeloma cells at a concentration of 0.01 ug/mL
Mus musculus [4] = experiment: Tested for percent average weekly weight change in mice at a significant dose of 80 mg/kg administered intraperitoneally; settings: route intraperitoneal
Mus musculus [5] = experiment: Tested for skin toxicity in BALB/c mice at a significant dose of 2.00 mg/kg administered intraintradermally and involved concentric circular areas of induration.
Mus musculus [6] = experiment: Tested for high-dose toxicity in mice at a significant dose of 100 mg/kg administered intraperitoneally after 1 days of treatment; settings: route intraperitoneal
Mus musculus [7] = experiment: Tested for percent average weekly weight change in mice at a significant dose of 45 mg/kg administered intraperitoneally after 5 days of treatment; settings: route intraperitoneal
Mus musculus [8] = experiment: Tested for high-dose toxicity in mice at a significant dose of 80 mg/kg administered intraperitoneally after 1 days of treatment; settings: route intraperitoneal
Mus musculus [9] = experiment: Tested for high-dose toxicity in mice at a significant dose of 37.5 mg/kg administered intraperitoneally after 5 days of treatment; settings: route intraperitoneal
Mus musculus [10] = experiment: Tested for skin toxicity in BALB/c mice at a significant dose of 0.25 mg/kg administered intraintradermally and involved concentric circular areas of ulceration
Mus musculus [11] = experiment: Tested for skin toxicity in BALB/c mice at a significant dose of 0.25 mg/kg administered intraintradermally and involved concentric circular areas of erythema
Mus musculus [12] = experiment: Tested for percent average weekly weight change in mice at a significant dose of 70 mg/kg administered intraperitoneally after 5 days of treatment; settings: route intraperitoneal
L1210 [13] = experiment: Effect on RNA synthesis was determined by incorporation of radioligand into L1210 murine leukemia at a concentration of 0.01 ug/mL; settings: Mus musculus
L1210 [14] = experiment: Effect on protein synthesis was determined by incorporation of radioligand into L1210 murine leukemia at a concentration of 0.3 ug/mL (*: >50% cell kill); settings: Mus musculus
L1210 [15] = experiment: Effect on RNA synthesis was determined by incorporation of radioligand into L1210 murine leukemia at a concentration of 1 ug/mL. (*: >1 log cell kill); settings: Mus musculus
L1210 [16] = experiment: Antileukemic activity against L-1210 cells in mice at a dose of 80 mg/kg administered intraperitoneally after 1 day treatment; settings: Mus musculus, L1210, ip, 24 h, route intraperitoneal
L1210 [17] = experiment: Effect on protein synthesis was determined by incorporation of radioligand into L1210 murine leukemia at a concentration of 0.5 ug/mL. (*: >1 log cell kill); settings: Mus musculus
P388 = experiment: Antileukemic activity against P-388 in mice at a dose of 80 mg/kg administered intraperitoneally after 1 day treatment; settings: Mus musculus, P388, ip, 24 h, route intraperitoneal
L1210 [18] = experiment: Antileukemic activity against L-1210 cells in mice at a dose of 70 mg/kg administered intraperitoneally after 1 day treatment; settings: Mus musculus, L1210, ip, 24 h, route intraperitoneal
L1210 [19] = experiment: Antileukemic activity against L-1210 cells in mice at a dose of 30 mg/kg administered intraperitoneally after 5 day treatment; settings: Mus musculus, L1210, ip, 120 h, route intraperitoneal
RPMI-8226 [20] = experiment: Effect on DNA synthesis was determined by incorporation of radioligand into 8226 human myeloma cells at a concentration of 1 ug/mL. (*: >1 log cell kill)
L1210 [21] = experiment: Effect on RNA synthesis was determined by incorporation of radioligand into L1210 murine leukemia at a concentration of 10 ug/mL (*: >1 log cell kill); settings: Mus musculus
RPMI-8226 [22] = experiment: Effect on protein synthesis was determined by incorporation of radioligand into 8226 human myeloma cells at a concentration of 0.5 ug/mL. (*: >1 log cell kill)
Mus musculus [23] = experiment: Tested for percent average weekly weight change in mice at a significant dose of 90 mg/kg administered intraperitoneally after 5 days of treatment; settings: route intraperitoneal
RPMI-8226 [24] = experiment: Effect on RNA synthesis was determined by incorporation of radioligand into 8226 human myeloma cells at a concentration of 0.01 ug/mL
Mus musculus [25] = experiment: Tested for skin toxicity in BALB/c mice at a significant dose of 0.75 mg/kg administered intraintradermally and involved concentric circular areas of ulceration
Mus musculus [26] = experiment: Tested for high-dose toxicity in mice at a significant dose of 80 mg/kg administered intraperitoneally after 5 days of treatment; settings: route intraperitoneal
Mus musculus [27] = experiment: Tested for skin toxicity in BALB/c mice at a significant dose of 2.5 mg/kg administered intraintradermally and involved concentric circular areas of induration.
L1210 [28] = experiment: Effect on DNA synthesis was determined by incorporation of radioligand into L1210 murine leukemia at a concentration of 1 ug/mL. (*: >1 log cell kill); settings: Mus musculus
L1210 [29] = experiment: Effect on DNA synthesis was determined by incorporation of radioligand into L1210 murine leukemia at a concentration of 0.01 ug/mL; settings: Mus musculus
Mus musculus [30] = experiment: Tested for percent average weekly weight change in mice at a significant dose of 60 mg/kg administered intraperitoneally after 5 days of treatment; settings: route intraperitoneal
Mus musculus [31] = experiment: Tested for skin toxicity in BALB/c mice at a significant dose of 0.75 mg/kg administered intraintradermally and involved concentric circular areas of erythema
Mus musculus [32] = experiment: Tested for high-dose toxicity in mice at a significant dose of 45 mg/kg administered intraperitoneally after 5 days of treatment; settings: route intraperitoneal
Mus musculus [33] = experiment: Tested for skin toxicity in BALB/c mice at a significant dose of 0.75 mg/kg administered intraintradermally and involved concentric circular areas of induration.
[34] = Tested in vitro for inhibitory activity of human tumor cell growth against HEC 1A endometrial tumor, by using clonogenic assays.; settings: read-out: ID50 (the source's name)
L1210 [35] = experiment: Antileukemic activity against L-1210 cells in mice at a dose of 60 mg/kg administered intraperitoneally after 5 day treatment; settings: Mus musculus, L1210, ip, 120 h, route intraperitoneal
RPMI-8226 [36] = experiment: Effect on RNA synthesis was determined by incorporation of radioligand into 8226 human myeloma cells at a concentration of 10 ug/mL (*: >1 log cell kill)
Mus musculus [37] = experiment: Tested for skin toxicity in BALB/c mice at a significant dose of 1.25 mg/kg administered intraintradermally and involved concentric circular areas of induration.
Mus musculus [38] = experiment: Tested for high-dose toxicity in mice at a significant dose of 70 mg/kg administered intraperitoneally after 5 days of treatment; settings: route intraperitoneal
Mus musculus [39] = experiment: Tested for skin toxicity in BALB/c mice at a significant dose of 1.25 mg/kg administered intraintradermally and involved concentric circular areas of erythema

SMILES: CN(C)CCNCc1c2ccccc2c(CNCCN(C)C)c2ccccc12
- inhibition at 0.5 µg/mL (RPMI-8226 [1]): 7.3%
- Lethality (Mus musculus [2]): 100%
- Median day of death (Mus musculus [2]): 4
- inhibition at 0.01 µg/mL (RPMI-8226 [3]): 0%
- Lethality (Mus musculus [4]): -3%
- Extent of skin lesions (Mus musculus [5]): 5.3 cm**2
- Lethality (Mus musculus [6]): 60%
- Median day of death (Mus musculus [6]): 0
- Average weekly weight change (Mus musculus [7]): -12%
- Lethality (Mus musculus [8]): 10%
- Median day of death (Mus musculus [8]): 12
- Lethality (Mus musculus [9]): 20%
- Median day of death (Mus musculus [9]): 2
- Extent of skin lesions (Mus musculus [10]): 0.2 cm**2
- Extent of skin lesions (Mus musculus [11]): 0.3 cm**2
- Average weekly weight change (Mus musculus [12]): -7%
- inhibition at 0.01 µg/mL (L1210 [13]): 0%
- inhibition at 0.3 µg/mL (L1210 [14]): 9.8%
- inhibition at 1 µg/mL (L1210 [15]): 6.9%
- ILS at 80 mg/kg (L1210 [16]): 14%
- inhibition at 0.5 µg/mL (L1210 [17]): 21.8%
- ILS at 80 mg/kg (P388): 36%
- ILS at 70 mg/kg (L1210 [18]): 40%
- ILS at 30 mg/kg (L1210 [19]): 5%
- inhibition at 1 µg/mL (RPMI-8226 [20]): 21.1%
- inhibition at 10 µg/mL (L1210 [21]): 96.3%
- inhibition at 0.5 µg/mL (RPMI-8226 [22]): 63.5%
- Average weekly weight change (Mus musculus [23]): -11%
- inhibition at 0.01 µg/mL (RPMI-8226 [24]): 0%
- Extent of skin lesions (Mus musculus [25]): 1 cm**2
- Lethality (Mus musculus [26]): 20%
- Median day of death (Mus musculus [26]): 4
- Extent of skin lesions (Mus musculus [27]): 6.1 cm**2
- inhibition at 1 µg/mL (L1210 [28]): 48.7%
- inhibition at 0.01 µg/mL (L1210 [29]): 0%
- Average weekly weight change (Mus musculus [30]): 0%
- Extent of skin lesions (Mus musculus [31]): 1.3 cm**2
- Lethality (Mus musculus [32]): 30%
- Median day of death (Mus musculus [32]): 2
- Extent of skin lesions (Mus musculus [33]): 1.7 cm**2
- IC50 [34]: 360 nM
- ILS at 60 mg/kg (L1210 [35]): 27%
- inhibition at 10 µg/mL (RPMI-8226 [36]): 91.4%
- Extent of skin lesions (Mus musculus [37]): 4.3 cm**2
- Lethality (Mus musculus [38]): 10%
- Median day of death (Mus musculus [38]): 0
- Extent of skin lesions (Mus musculus [39]): 2.2 cm**2
